In brackets after ≈: the same amount, converted by molar mass. Where two headings read alike, the source gives them in different places. In the oligonucleotide strings, read from the 5' end, every base follows the letter of its sugar. An asterisk marks phosphorothioate; unmarked linkages are phosphodiester. Other units and linkages are bracketed, terminal groups are in braces. A string of capitals states the bases alone. Bridge positions count the residues as written; N and C are the ends. Square brackets hold non-standard residues; d marks the D form. Peptide text beside a SMILES is read from it. {FL} = fluorescein label; Dab = NCC[C@H](N)C(=O)O; d = 2'-deoxy (DNA); m = 2'-O-methyl
How the values were obtained:
M. tuberculosis = assay type: cell-based; conditions: log reduction in CFU vs untreated control or MM-PS-ODN cultures; 10 μM, added once at start
[1] = tested on: M. tuberculosis Erdman strain; assay type: cell-based; conditions: 6 weeks, O.D.; for inhibition of M. tuberculosis in the presence of antibiotic (in words): 10 μM plus ethambutol 5 μg/ml; for M. tuberculosis growth in the absence of antibiotic (in words): 10 μM
M. tuberculosis Erdman [2] = assay type: cell-based
M. tuberculosis Erdman [3] = tested on: M. tuberculosis Erdman
M. smegmatis 1-2c [4] = tested on: M. smegmatis 1-2c
[5] = tested on: M. tuberculosis Erdman glutamine synthetase; conditions: 20 μM; Harth et al. 1999; cited from earlier work
[6] = tested on: poly-L-glutamate/glutamine in the cell wall of M. tuberculosis; conditions: 20 μM; Harth et al. 1999; cited from earlier work
M. tuberculosis Erdman [7] = conditions: Harth et al. 1999, cited from earlier work
M. tuberculosis Erdman [8] = assay: microbe, parasite or virus in culture; conditions: Mycobacterium tuberculosis
M. smegmatis 1-2c [9] = assay: microbe, parasite or virus in culture; conditions: Mycolicibacterium smegmatis, 12C
[10] = tested on: M. tuberculosis Erdman strain; assay type: cell-based

5′>GCTCTGAAACGTGCCGGTCTGAAC (dG*dC*dT*dC*dT*dG*dA*dA*dA*dC*dG*dT*dG*dC*dC*dG*dG*dT*dC*dT*dG*dA*dA*dC; antisense) [fadD26]
log Reduction (M. tuberculosis): 0.65 log

5′-TGGGGCTGGCCATGTCTTCAC-3′ (SEQ ID NO: 7) [Val 23]
inhibition of M. tuberculosis in the presence of antibiotic (in words) [1]: enhanced the inhibition | M. tuberculosis growth in the absence of antibiotic (in words) [1]: inhibited

5′>CGGCCCTGCATGTCGGTGAACGCG (dC*dG*dG*dC*dC*dC*dT*dG*dC*dA*dT*dG*dT*dC*dG*dG*dT*dG*dA*dA*dC*dG*dC*dG; antisense) [glnA4]
log Reduction (M. tuberculosis): 0 log

5′>2′OMeACGAAC-CCTGTCAACAAG-2′OMeCTGCAT (antisense ACGAACCCTGTCAACAAGCTGCAT; sugars from the 5' end m6 d12 m6, all phosphorothioate, T or U not given here) [fbpA (SEQ ID NO: 26), antisense PS-ODN against fbpA with O-methyl groups at the 5′ and 3′ ends]
log Reduction (M. tuberculosis): 0.4 log

NCC[C@H](O)C(=O)N[C@@H]1C[C@H](N)[C@@H](O[C@H]2O[C@H](CN)[C@@H](O)[C@H](O)[C@H]2O)[C@H](O)[C@H]1O[C@H]1O[C@H](CO)[C@@H](O)[C@H](N)[C@H]1O [amikacin, reference compound]
antibacterial effect of free antibiotic (in words) (M. tuberculosis Erdman [2]; 1 μM): bacteriostatic | antibacterial effect of free antibiotic (in words) (M. tuberculosis Erdman [2]; 5.8 μg per ml (10 μM)): strongly bactericidal

5′-CACCTTCGCCACGATTGGAGCCCTCCA (SEQ ID NO: 13) (phosphorothioate, further chemistry not given here; listed as Mycobacterium tuberculosis) [Val 41, PS-ODN against nucleotides −15 to 12 of the groES gene]
inhibition of M. tuberculosis in the presence of antibiotic (in words) [1]: enhanced the inhibition | M. tuberculosis growth in the absence of antibiotic (in words) [1]: did not inhibit

5′>AATGATTTCTTCCTGAGTGACAGGCAC (dA*dA*dT*dG*dA*dT*dT*dT*dC*dT*dT*dC*dC*dT*dG*dA*dG*dT*dG*dA*dC*dA*dG*dG*dC*dA*dC; antisense) [acpM]
log Reduction (M. tuberculosis): 0 log

CC(C)C[C@@H]1NC(=O)[C@@H](Cc2ccccc2)NC(=O)[C@H](CCN)NC(=O)[C@@H](NC(=O)[C@H](CCN)NC(=O)[C@@H](N)[C@@H](C)O)CCNC(=O)[C@H]([C@@H](C)O)NC(=O)[C@H](CCN)NC(=O)[C@H](CCN)NC1=O [polymyxin B nonapeptide] (H-T[Dab][Dab][Dab][dF]L[Dab][Dab]T; lactam 3-C; N-terminus assumed)
MIC (M. tuberculosis Erdman [3]): ~5 µg/mL (≈ 5.19 µM) | MIC (M. smegmatis 1-2c [4]): ~5 µg/mL (≈ 5.19 µM)

5′>AACGGGAGTGACACGTGATTCCAT (dA*dA*dC*dG*dG*dG*dA*dG*dT*dG*dA*dC*dA*dC*dG*dT*dG*dA*dT*dT*dC*dC*dA*dT) [mas]
log Reduction (M. tuberculosis): 0.35 log

5′>CGCGATCGCGTTCTCGGGGATGCTCAC (dC*dG*dC*dG*dA*dT*dC*dG*dC*dG*dT*dT*dC*dT*dC*dG*dG*dG*dG*dA*dT*dG*dC*dT*dC*dA*dC; antisense) [ppsE]
log Reduction (M. tuberculosis): 0 log

5′>AACGAATTCCTTCTGTCGGTCCAT (dA*dA*dC*dG*dA*dA*dT*dT*dC*dC*dT*dT*dC*dT*dG*dT*dC*dG*dG*dT*dC*dC*dA*dT; antisense) [glnA2]
log Reduction (M. tuberculosis): 0.05-0.1 log

5′-TGCCGCAGCCACGGCGACGGCCGTGGTGTCCGAACC (SEQ ID NO: 12) [Val 34]
inhibition of M. tuberculosis in the presence of antibiotic (in words) [1]: enhanced the inhibition | M. tuberculosis growth in the absence of antibiotic (in words) [1]: inhibited

5′>CACATCCAGCGACTTGGCCAGCTC (dC*dA*dC*dA*dT*dC*dC*dA*dG*dC*dG*dA*dC*dT*dT*dG*dG*dC*dC*dA*dG*dC*dT*dC; antisense) [rfbE]
log Reduction (M. tuberculosis): 0 log

5′>CGCCGCGCGCTCCGCCAGACTTGTCAT (dC*dG*dC*dC*dG*dC*dG*dC*dG*dC*dT*dC*dC*dG*dC*dC*dA*dG*dA*dC*dT*dT*dG*dT*dC*dA*dT; antisense) [ppsD]
log Reduction (M. tuberculosis): 0 log

5′-TGGCCATGTCTTCACCGCTTCATCCTG (SEQ ID NO: 9) [Val 25]
M. tuberculosis growth in the absence of antibiotic (in words) [1]: did not inhibit

CS(=N)(=O)CC[C@H](N)C(=O)O (stereo partly drawn) [L-methionine-S-sulfoximine]
reduction of extracellular glutamine synthetase activity [5]: 80% | reduction of the amount of the poly-L-glutamate/glutamine cell wall structure [6]: 93% | inhibition of bacterial growth (M. tuberculosis Erdman [7]; 2 μM): 1.5-2 log units | reduction of bacterial growth (M. tuberculosis Erdman [7]; 20 μM): ≥ 2.5 log units

5′>GCACGGTCTTGGCCTGGGTGAGTC (dG*dC*dA*dC*dG*dG*dT*dC*dT*dT*dG*dG*dC*dC*dT*dG*dG*dG*dT*dG*dA*dG*dT*dC; antisense) [glnA3]
log Reduction (M. tuberculosis): 0 log

5′>GGACACCTCGAGACCGTACTGCAC (dG*dG*dA*dC*dA*dC*dC*dT*dC*dG*dA*dG*dA*dC*dC*dG*dT*dA*dC*dT*dG*dC*dA*dC) [rfe]
log Reduction (M. tuberculosis): 0.25 log

5′>TTTGCCGTCCAGCAGTCCTGTCAT (chemistry not given here) [lnhA]
log Reduction (M. tuberculosis): 0.05 log

5′>AATCCGGCTGAAAGCCGTTCGCATCAC (dA*dA*dT*dC*dC*dG*dG*dC*dT*dG*dA*dA*dA*dG*dC*dC*dG*dT*dT*dC*dG*dC*dA*dT*dC*dA*dC; antisense) [ppsB]
log Reduction (M. tuberculosis): 0 log

CC[C@@H](CO)NCCN[C@@H](CC)CO [ethambutol]
MIC (M. tuberculosis Erdman [8]): ~5 µg/mL (≈ 24.5 µM) | MIC (M. smegmatis 1-2c [9]): ~10 µg/mL (≈ 48.9 µM)

5′>TTCACCACTGATGCTTCCCGTCAT (dT*dT*dC*dA*dC*dC*dA*dC*dT*dG*dA*dT*dG*dC*dT*dT*dC*dC*dC*dG*dT*dC*dA*dT; antisense) [ppsA]
log Reduction (M. tuberculosis): 0 log

5′-TGCCGCAGCCACGGCGACGGCCGTGGT (SEQ ID NO: 11) [Val 33]
inhibition of M. tuberculosis in the presence of antibiotic (in words) [1]: enhanced the inhibition | M. tuberculosis growth in the absence of antibiotic (in words) [1]: inhibited

5′>FL-GCCGGGGTGTTGATATCCCAGCCG (5' {FL}, sugars by position and backbone not given here) [fbpB (SEQ ID NO: 24), antisense PS-ODN against fbpB (30 kDa protein gene) with fluorescein attached to the 5′ end]
log Reduction (M. tuberculosis): 0.6 log

5′-CGCTTCATCCTGCCGTGTCGG (SEQ ID NO: 8) [Val 24]
inhibition of M. tuberculosis in the presence of antibiotic (in words) [1]: enhanced the inhibition | M. tuberculosis growth in the absence of antibiotic (in words) [1]: did not inhibit

5′>ACGAACCCTGTCAACAAGCTGCAT-GGGGG (antisense dA*dC*dG*dA*dA*dC*dC*dC*dT*dG*dT*dC*dA*dA*dC*dA*dA*dG*dC*dT*dG*dC*dA*dT*dG*dG*dG*dG*dG) [fbpA (SEQ ID NO: 27), antisense PS-ODN against fbpA with five Gs attached to the 3′ end]
log Reduction (M. tuberculosis): 0.8 log

5′>TC(c->g)GCGATCTGGTGTCGCTGCGGTCAT (phosphorothioate, 5' TC(c->g) prefix, further chemistry not given here) [ppsC]
log Reduction (M. tuberculosis): 0 log

5-GAACGCCGGGGTGTTGATGTCCCAGCCG (SEQ ID NO: 14) [ML10]
inhibition of M. tuberculosis growth in the presence of ethambutol, added only once ([10]; 10 μM plus ethambutol 5 μg/ml, 9 weeks): slightly enhanced the inhibition | M. tuberculosis growth relative to control, added only once at the start ([10]; 10 μM, no antibiotic, 9 weeks, O.D.): slightly inhibited | M. tuberculosis growth relative to control, added weekly for 9 weeks ([10]; 10 μM, no antibiotic, O.D.): inhibited

5′>2′OMeATTCTT-TCGGCTCACGTC-2′OMeTGTCAT [fbpB (SEQ ID NO: 25)]
log Reduction (M. tuberculosis): 0.4 log

5′>CAAGATGGACACCGTCACCGCTAC (dC*dA*dA*dG*dA*dT*dG*dG*dA*dC*dA*dC*dC*dG*dT*dC*dA*dC*dC*dG*dC*dT*dA*dC; antisense) [murX]
log Reduction (M. tuberculosis): 0 log

5′-CCATGTCTTCACCGCTTCATCCTG (SEQ ID NO: 10) [Val 26]
inhibition of M. tuberculosis in the presence of antibiotic (in words) [1]: enhanced the inhibition | M. tuberculosis growth in the absence of antibiotic (in words) [1]: did not inhibit

5′>GACATTCTCCCAGAACCGTTTCAC (chemistry not given here) [air, antisense PS-ODN against the alr gene (alanine racemase) transcript]
log Reduction (M. tuberculosis): 0.2 log

5′>GCCATTAGCGGTGGAAGGCTGACTCAC (dG*dC*dC*dA*dT*dT*dA*dG*dC*dG*dG*dT*dG*dG*dA*dA*dG*dG*dC*dT*dG*dA*dC*dT*dC*dA*dC; antisense) [kasA]
log Reduction (M. tuberculosis): 0 log
